Experimental data taken from PubChem BioAssay (NCI).
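Grown in 96-well plates, cells were treated for 48 hours with each compound at five concentrations. Insufficient inhibition: endpoint recorded as highest concentration tested. TGI denotes the concentration required for complete inhibition of growth.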

Key:
Assay in all cases: NCI tumour cell line growth inhibition, 48 h
M14 melanoma = test system: M14 melanoma
K-562 leukemia = test system: K-562 leukemia
U251 CNS = test system: U251 CNS
KM12 colon = test system: KM12 colon
SF-268 CNS = test system: SF-268 CNS
HOP-62 NSCLC = test system: HOP-62 NSCLC
SF-539 CNS = test system: SF-539 CNS
T-47D breast = test system: T-47D breast
OVCAR-8 ovarian = test system: OVCAR-8 ovarian
HOP-92 NSCLC = test system: HOP-92 NSCLC
HCT-15 colon = test system: HCT-15 colon
UACC-257 melanoma = test system: UACC-257 melanoma
SK-OV-3 ovarian = test system: SK-OV-3 ovarian
SR leukemia = test system: SR leukemia
RPMI-8226 leukemia = test system: RPMI-8226 leukemia
IGROV1 ovarian = test system: IGROV1 ovarian
HCT-116 colon = test system: HCT-116 colon
HT29 colon = test system: HT29 colon
UO-31 renal = test system: UO-31 renal
MDA-N = test system: MDA-N
HS 578T breast = test system: HS 578T breast
TK-10 renal = test system: TK-10 renal
CAKI-1 renal = test system: CAKI-1 renal
OVCAR-3 ovarian = test system: OVCAR-3 ovarian
NCI-H226 lung = test system: NCI-H226 lung
NCI-H23 lung = test system: NCI-H23 lung
ACHN renal = test system: ACHN renal
SK-MEL-28 melanoma = test system: SK-MEL-28 melanoma
RXF 393 renal = test system: RXF 393 renal
OVCAR-4 ovarian = test system: OVCAR-4 ovarian
DU-145 prostate = test system: DU-145 prostate
SW-620 colon = test system: SW-620 colon
MDA-MB-435 = test system: MDA-MB-435
CCRF-CEM leukemia = test system: CCRF-CEM leukemia
MOLT-4 leukemia = test system: MOLT-4 leukemia
LOX IMVI melanoma = test system: LOX IMVI melanoma
MCF7 breast = test system: MCF7 breast
HL-60(TB) leukemia = test system: HL-60(TB) leukemia
NCI/ADR-RES ovarian = test system: NCI/ADR-RES ovarian
SNB-75 CNS = test system: SNB-75 CNS
SK-MEL-2 melanoma = test system: SK-MEL-2 melanoma
MDA-MB-231 breast = test system: MDA-MB-231 breast
SF-295 CNS = test system: SF-295 CNS
786-0 renal = test system: 786-0 renal
SK-MEL-5 melanoma = test system: SK-MEL-5 melanoma
NCI-H522 lung = test system: NCI-H522 lung
HCC-2998 colon = test system: HCC-2998 colon
A498 renal = test system: A498 renal
PC-3 prostate = test system: PC-3 prostate
NCI-H460 lung = test system: NCI-H460 lung
OVCAR-5 ovarian = test system: OVCAR-5 ovarian
EKVX NSCLC = test system: EKVX NSCLC

`COc1ccc(C(OC(C)=O)C2C(=C(C#N)C#N)c3ccccc3C2=C(C#N)C#N)cc1` (configuration not stated) gave a TGI (M14 melanoma) greater than 100 µM, a TGI (K-562 leukemia) greater than 100 µM and a TGI (U251 CNS) greater than 100 µM. It also gave a TGI (KM12 colon) greater than 100 µM, a TGI (SF-268 CNS) greater than 100 µM and a TGI (HOP-62 NSCLC) of 62.6 µM. It also gave a TGI (SF-539 CNS) of 49.7 µM, a TGI (T-47D breast) greater than 100 µM and a TGI (OVCAR-8 ovarian) greater than 100 µM. It also gave a TGI (HOP-92 NSCLC) greater than 100 µM, a TGI (HCT-15 colon) greater than 100 µM and a TGI (UACC-257 melanoma) greater than 100 µM. The TGI (SK-OV-3 ovarian) was 62.8 µM, the TGI (SR leukemia) was 41 µM and the TGI (RPMI-8226 leukemia) was 60.4 µM. The TGI (IGROV1 ovarian) was greater than 100 µM, the TGI (HCT-116 colon) was greater than 100 µM and the TGI (HT29 colon) was 95.1 µM. For the same compound, the TGI (UO-31 renal) was 75.1 µM, the TGI (MDA-N) was greater than 100 µM and the TGI (HS 578T breast) was 91.6 µM. It also gave a TGI (TK-10 renal) greater than 100 µM, a TGI (CAKI-1 renal) greater than 100 µM and a TGI (OVCAR-3 ovarian) of 50.6 µM. For the same compound, the TGI (NCI-H226 lung) was greater than 100 µM, the TGI (NCI-H23 lung) was 85.7 µM and the TGI (ACHN renal) was greater than 100 µM. It also gave a TGI (SK-MEL-28 melanoma) greater than 100 µM, a TGI (RXF 393 renal) greater than 100 µM and a TGI (OVCAR-4 ovarian) greater than 100 µM. For the same compound, the TGI (DU-145 prostate) was greater than 100 µM, the TGI (SW-620 colon) was greater than 100 µM and the TGI (MDA-MB-435) was greater than 100 µM. For the same compound, the TGI (CCRF-CEM leukemia) was 62.6 µM, the TGI (MOLT-4 leukemia) was 99.8 µM and the TGI (LOX IMVI melanoma) was greater than 100 µM. The TGI (MCF7 breast) was greater than 100 µM, the TGI (HL-60(TB) leukemia) was 41.9 µM and the TGI (NCI/ADR-RES ovarian) was greater than 100 µM. The TGI (SNB-75 CNS) was greater than 100 µM, the TGI (SK-MEL-2 melanoma) was 83.8 µM and the TGI (MDA-MB-231 breast) was greater than 100 µM. It also gave a TGI (SF-295 CNS) of 64.6 µM, a TGI (786-0 renal) greater than 100 µM and a TGI (SK-MEL-5 melanoma) greater than 100 µM. For the same compound, the TGI (NCI-H522 lung) was greater than 100 µM, the TGI (HCC-2998 colon) was 59.9 µM and the TGI (A498 renal) was 58.6 µM. The TGI (PC-3 prostate) was 54.3 µM, the TGI (NCI-H460 lung) was greater than 100 µM and the TGI (OVCAR-5 ovarian) was 38.3 µM. It also gave a TGI (EKVX NSCLC) greater than 100 µM.
